Laboratory results: patent publication US20210330611A1, “THERAPY FOR NEUROLOGICAL DISEASES/DISORDERS” (priority 2020, published 2021)
pIC50: −log10 of the molar value. Values joined by “and” are separate entries in the source; they are usually repeats but may differ in a detail not shown here. Identical values can stand only once. Like-named read-outs stand apart in the source and are kept apart here. Where no end group is shown, it is not given here.

Legend:
[1] = system: fibrin-induced microglia activation; assay: Image-based assay of fibrin-induced microglia activation (HTS and dose response); format: cell-based, rat; conditions: for Fibrin % inhibition / inhibition at 10 µM: primary microglia HTS; for inhibition at 10 µM: Rattus norvegicus, Microglia, read-out: Fibrin % inhibition; for IC50: read-out: Fibrin IC50 (uM) (Suppl. Table 7)
[2] = system: LPS-induced microglia activation; assay: Image-based assay of LPS-induced microglia activation (HTS and dose response); format: cell-based, rat; conditions: for inhibition at 10 µM: Rattus norvegicus, Microglia, read-out: LPS % inhibition; for IC50: read-out: LPS IC50 (uM) (Suppl. Table 7)
[3] = system: primary rat microglia
[4] = system: fibrin- and LPS-induced microglia activation; assay: cells; format: cell-based, rat; conditions: for Hit: HTS hit classification
[5] = system: primary rat microglia; conditions: rat
[6] = system: primary rat microglia; assay: Cell toxicity (dead cells, size <150 μm2) in LPS assay; conditions: for LPS % cell toxicity: primary microglia HTS; for IC50: read-out: Cell Toxicity IC50 (uM) [LPS assay]
[7] = system: primary rat microglia; assay: Cell toxicity (dead cells, size <150 μm2) in coated fibrin (cFib) assay; conditions: for Fibrin % cell toxicity: primary microglia HTS; for IC50: read-out: Cell Toxicity IC50 (uM) [cFib assay];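 as to Fibrin % cell toxicity: share of dead cells sized under 150 µm2 at 10 µM in fibrin-stimulated microglia HTS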
[8] = fibrin stimulation, increased cell size (>800 μm^2) as marker of activation
[9] = primary microglia HTS, LPS stimulation, increased cell size (>800 μm^2) as marker of activation
[10] = classification by fibrin and LPS inhibition, HTS at 10 μM
[11] = fibrin stimulation, compounds at 10 μM
[12] = 48 h, primary microglia HTS, LPS stimulation, increased cell size (>800 μm^2) as marker of activation
[13] = primary microglia HTS, LPS stimulation, compounds at 10 μM
[14] = quadrant by fibrin and LPS inhibition in HTS of 1907 compounds
[15] = LPS stimulation, decreased size (<150 μm^2) as marker of toxicity
[16] = fibrin stimulation, decreased size (<150 μm^2) as marker of toxicity
[17] = Table 1, dose response 0.001-20 μM, triplicates, primary rat microglia, 48 h, read-out: Fibrin IC50
[18] = dose response, fibrin-induced microglia activation, read-out: Fibrin IC50
[19] = Table 1, dose response 0.001-20 μM, triplicates, primary rat microglia, 48 h, read-out: LPS IC50
[20] = dose response, LPS-induced microglia activation, read-out: LPS IC50
[21] = HTS of 1907 compounds, quadrant by fibrin and LPS inhibition
[22] = 10 μM, fibrin-stimulated, cell size >800 μm^2 as marker of activation
[23] = primary microglia HTS, 10 μM, LPS-stimulated, cell size >800 μm^2 as marker of activation
[24] = 10 μM, LPS assay, cell size <150 μm^2 as marker of toxicity
[25] = 10 μM, fibrin assay, cell size <150 μm^2 as marker of toxicity

Compound: CN(Cc1cnc2nc(N)nc(N)c2n1)c1ccc(C(=O)N[C@@H](CCC(=O)O)C(=O)O)cc1 (racemic) [Methotrexate(+/−)]
- Fibrin % inhibition [1, 8]: 0%
- LPS % inhibition [2, 9]: 0%
- Fibrin % cell toxicity [3]: 0%

Compound: Nc1nc(Cl)nc2c1ncn2[C@@H]1O[C@H](CO)[C@@H](O)[C@@H]1F [Clofarabine]
- LPS % inhibition ([2]; primary HTS, 10 μM, LPS-stimulated primary microglia): −2% and 8%
- Quadrant (FIG. 5b) ([4]; primary HTS, 10 μM): Q4
- Fibrin % cell toxicity ([3]; rat): 1%

Compound: CC(=O)O[C@]1(C(C)=O)CC[C@H]2[C@@H]3C=C(Cl)C4=CC(=O)[C@@H]5C[C@@H]5[C@]4(C)[C@H]3CC[C@@]21C [Cyproterone Acetate]
- LPS % inhibition ([2]; primary microglia HTS, LPS stimulation, compounds at 10 μM, 10 µM): 12% and 3%
- Quadrant (FIG. 5b) [4, 10]: Q4
- Fibrin % cell toxicity ([3]; rat): 1%

Compound: C#C[C@]1(O)CC[C@H]2[C@@H]3CCC4=Cc5oncc5C[C@]4(C)[C@H]3CC[C@@]21C [Danazol]
- inhibition at 10 µM [1, 11]: -14%
- inhibition at 10 µM [1, 8]: 105%
- inhibition at 10 µM [2, 12]: 99%
- inhibition at 10 µM [2, 13]: 5%
- Quadrant (FIG. 5b) [4, 10]: Q4
- Quadrant (FIG. 5b) [4, 14]: Q2
- LPS % cell toxicity [5]: 0%
- LPS % cell toxicity [6, 15]: 14%
- Fibrin % cell toxicity ([7]; fibrin assay, dead cells (size <150 μm2), compounds at 10 μM): 1%
- Fibrin % cell toxicity [7, 16]: 28%

Compound: O=C(O)CN(CCN(CC(=O)O)CC(=O)O)CC(=O)O [Edetic Acid]
- Quadrant (FIG. 5b) [4]: Q4
- Fibrin % cell toxicity ([3]; rat): 0%

Compound: C[C@]12CC[C@@H]3c4ccc(O)cc4CC[C@H]3[C@@H]1CCC2=O [Estrone]
- inhibition at 10 µM [1, 11]: 35%
- inhibition at 10 µM [1, 8]: 106%
- inhibition at 10 µM [2, 12]: 106%
- inhibition at 10 µM [2, 13]: 16%
- Quadrant (FIG. 5b) [4, 10]: Q4
- Quadrant (FIG. 5b) [4, 14]: Q2
- LPS % cell toxicity [5]: 0%
- LPS % cell toxicity [6, 15]: 25%

Compound: O=c1[nH]c(=O)n([C@H]2C[C@H](O)[C@@H](CO)O2)cc1I [Idoxuridine]
- Quadrant (FIG. 5b) [4, 14]: Q4
- Fibrin % cell toxicity ([3]; rat): 1%

Compound: CCC(C)n1ncn(-c2ccc(N3CCN(c4ccc(OCC5COC(Cn6cncn6)(c6ccc(Cl)cc6Cl)O5)cc4)CC3)cc2)c1=O (stereo not shown) [Itraconazole]
- Quadrant (FIG. 5b) [4, 14]: Q4
- Fibrin % cell toxicity ([3]; rat): 1%

Compound: CCCCCCCCCCC[C@@H](C[C@@H]1OC(=O)[C@H]1CCCCCC)OC(=O)[C@H](CC(C)C)NC=O [Orlistat]
- inhibition at 10 µM [1, 8]: 17%
- Quadrant (FIG. 5b) [4, 14]: Q4
- Fibrin % cell toxicity ([3]; rat): 1%

Compound: Clc1ccc(C(Cn2ccnc2)OCc2ccsc2Cl)c(Cl)c1 (stereo not shown) [Tioconazole]
- LPS % inhibition ([2]; 10 µM): 8%
- inhibition at 10 µM [2]: 12%
- Quadrant (FIG. 5b) [4]: Q4
- Fibrin % cell toxicity ([3]; rat): 1%

Compound: Monensin [reference compound]
- Fibrin Selectivity [1]: 49
- Fibrin Selectivity (LOG10) [1]: 1.69
- fib_HS ([1]; Hill slope of fibrin dose response, Table 7): −3.80
- pIC50 [1, 17]: 8.40
- IC50 ([1]; Table 3): 0.004 µM
- IC50 ([1]; Table 6): 0.004 µM
- fib specificity ([1]; Table 7): 0.2
- pIC50 ([1]; Table 7, read-out: fib_IC50): 5.94
- pIC50 [1, 18]: 8.40
- Fibrin Selectivity (LOG10) ([1]; fibrin vs LPS, LOG10, Table 6): 1.69
- Fibrin Selectivity ([1]; fibrin vs LPS, Table 6): 49
- IC50 ([1]; fibrin-induced microglia activation, dose response): 0.004 µM
- Fibrin % inhibition [1, 8]: 101%
- LPS_HS ([2]; Hill slope of LPS dose response, Table 7): −0.48
- IC50 ([2]; LPS-induced microglia activation, dose response): 0.2 µM
- pIC50 [2, 19]: 6.70
- IC50 ([2]; Table 3): 0.2 µM
- IC50 ([2]; Table 6): 0.2 µM
- LPS specificity ([2]; Table 7): 5.4
- pIC50 ([2]; Table 7, read-out: LPS_IC50): 6.67
- pIC50 [2, 20]: 6.70
- LPS % inhibition [2, 9]: 117%
- Hit [4]: HIT (Hits were defined as molecules that exhibited greater than 50% inhibition of either fibrin or LPS activation)
- Quadrant (FIG. 5b) [4, 21]: Q2
- Quadrant (FIG. 5b) ([4]; Table 1, screen at 10 μM): Q2
- Cherry-picked Hit (Suppl. Table 7) ([4]; Table 3): HIT (Hits were defined as molecules that exhibited greater than 50% inhibition of either fibrin or LPS activation)
- Quadrant (FIG. 5b) ([4]; Table 3, screen at 10 μM): Q2
- Activity ([4]; Table 7, fib = fibrin, LPS, tox = toxicity): fib/LPS
- Cherry-picked Hit (Suppl. Table 7) ([4]; hit classification in microglia HTS): HIT (Hits were defined as molecules that exhibited greater than 50% inhibition of either fibrin or LPS activation)
- Cherry-picked Hit (Suppl. Table 7) ([4]; microglia HTS, Table 6): HIT (Hits were defined as molecules that exhibited greater than 50% inhibition of either fibrin or LPS activation)
- Quadrant (FIG. 5b) ([4]; microglia HTS, Table 6): Q2
- Quadrant (FIG. 5b) [4, 14]: Q2
- LPS % cell toxicity [6, 15]: 6%
- IC50 ([6]; LPS assay): 2 µM
- IC50 ([6]; LPS assay, Table 6): 2 µM
- IC50 ([6]; Table 3): 2 µM
- Fibrin % cell toxicity [7, 16]: 3%
- IC50 ([7]; Table 3): > 20 µM
- IC50 ([7]; cFib assay): > 20 µM
- IC50 ([7]; cFib assay, Table 6): > 20 µM

Compound: Nonoxynol-9
- Fibrin % inhibition [1, 8]: −7%
- LPS % inhibition [2, 9]: 23%
- Quadrant (FIG. 5b) [4, 14]: Q4
- LPS % cell toxicity [6, 15]: 0%
- Fibrin % cell toxicity [7, 16]: 0%

Compound: Polymyxin B Sulfate
- Fibrin % inhibition [1, 8]: −25%
- LPS % inhibition [2, 9]: 76%
- Quadrant (FIG. 5b) [4, 14]: Q1
- LPS % cell toxicity [6, 15]: 2%
- Fibrin % cell toxicity [7, 16]: 1%

Compound: RKDVY [Thymopentin]
- Fibrin % inhibition [1, 22]: −20%
- LPS % inhibition [2, 23]: 20%
- Quadrant (FIG. 5b) [4, 21]: Q4
- LPS % cell toxicity [6, 24]: 0%
- Fibrin % cell toxicity [7, 25]: 1%

Compound: Sucralfate
- Fibrin % inhibition [1, 22]: −35%
- LPS % inhibition [2, 23]: 22%
- Quadrant (FIG. 5b) [4, 21]: Q4
- LPS % cell toxicity [6, 24]: 0%
- Fibrin % cell toxicity [7, 25]: 1%

Compound: Tyloxapol
- Fibrin % inhibition [1, 22]: −1%
- LPS % inhibition [2, 23]: 17%
- Quadrant (FIG. 5b) [4, 21]: Q4
- LPS % cell toxicity [6, 24]: 0%
- Fibrin % cell toxicity [7, 25]: 1%

Compound: Tyrothricin [reference compound]
- pIC50 [1, 17]: 5.52
- pIC50 [1, 18]: 5.52
- Fibrin % inhibition [1, 8]: 89%
- pIC50 [2, 19]: 6.30
- pIC50 [2, 20]: 6.30
- LPS % inhibition [2, 9]: 102%
- Hit [4]: HIT (Hits were defined as molecules that exhibited greater than 50% inhibition of either fibrin or LPS activation)
- Quadrant (FIG. 5b) ([4]; Table 1, screen at 10 μM): Q2
- Quadrant (FIG. 5b) [4, 14]: Q2
- LPS % cell toxicity [6, 15]: 2%
- Fibrin % cell toxicity [7, 16]: 2%

Compound: Viomycin Sulfate
- Fibrin % inhibition [1, 22]: −7%
- LPS % inhibition [2, 23]: 19%
- Quadrant (FIG. 5b) [4, 21]: Q4
- LPS % cell toxicity [6, 24]: 0%
- Fibrin % cell toxicity [7, 25]: 0%
